Test results as given in the supplement of paper PMC10307832.

Compound: C1=CC2=C(C=C(C(=C2N=C1)O)N=NC3=CC4=C(C=C3)C=C(C=C4)S(=O)(=O)O)S(=O)(=O)O + CCNC(=O)c1noc(-c2cc(C(C)C)c(O)cc2O)c1-c1ccc(CN2CCOCC2)cc1 [Luminespib] (partner 0.01 µM)
Assay: relative viability (nuclei count vs DMSO), 5 days (fraction); higher = more cells survive
Details: first compound 8 µM
Procedure, shortened: (§1)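 Nuclei were stained with Hoechst during a one-step fixation (final 0.05% Triton X-100, 1% formaldehyde, 1 ug/ml Hoechst) carried out 5 days after dosing, then counted on 4× images. The cells, lung cancer lines in 1536-well plates, had been dosed by pin tool the day after seeding with one drug alone or a fixed anchor-drug dose plus five library-drug doses (not always all listed) in √10 steps. Relative viability is the nuclei count in treated wells divided by that in vehicle wells, and each value is the median of duplicate plates.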

Cell Line	relative viability
CAL-12T	0.335
NCI-H1651	0.836
EPLC-272H	0.383
NCI-H2228	0.0984
NCI-H1355	0.775
NCI-H3122	0.102
NCI-H1437	0.571
NCI-H1755	0.472
NCI-H2023	0.52
HCC-15	0.368
NCI-H1793	0.16
PC-14	0.0819
EKVX	0.799
LC-2-ad	0.834
NCI-H1944	0.721
NCI-H1975	0.252

Compound: C1=CC2=C(C=C(C(=C2N=C1)O)N=NC3=CC4=C(C=C3)C=C(C=C4)S(=O)(=O)O)S(=O)(=O)O + O=C(CCCCCCC(=O)Nc1ccccc1)NO [Vorinostat] (partner 1 µM)
Assay: as above
Details: first compound 0.08 µM
Procedure, shortened: as §1

Cell Line	relative viability
NCI-H322M	0.967
LCLC-97TM1	0.593
NCI-H2009	0.691
A-427	0.894
NCI-H441	0.903
NCI-H661	0.765
NCI-H1734	0.788
NCI-H460	0.955
NCI-H2347	0.691
SK-LU-1	0.766
NCI-H1395	0.674
201T	0.997
NCI-H1915	0.539
HCC-827	0.926
LXF-289	0.75
NCI-H23	0.661
NCI-H647	0.646

Cell Line	relative viability
CAL-12T	0.916
NCI-H1651	0.66
EPLC-272H	0.453
NCI-H2228	0.966
NCI-H1355	0.646
NCI-H3122	1.16
NCI-H1437	0.901
NCI-H1755	0.81
NCI-H2023	0.844
HCC-15	0.818
NCI-H1793	0.797
PC-14	0.815
EKVX	0.757
LC-2-ad	0.702
NCI-H1944	0.52
NCI-H1975	0.707

Same assay, conditions: first compound 0.253 µM

Cell Line	relative viability
NCI-H322M	0.825
LCLC-97TM1	0.657
NCI-H2009	0.742
A-427	0.821
NCI-H441	0.684
NCI-H661	0.756
NCI-H1734	0.852
NCI-H460	0.66
NCI-H2347	0.621
SK-LU-1	0.725
NCI-H1395	0.596
201T	1.04
NCI-H1915	0.547
HCC-827	0.813
LXF-289	0.719
NCI-H23	0.627
NCI-H647	0.607

Cell Line	relative viability
CAL-12T	0.571
NCI-H1651	0.561
EPLC-272H	0.358
NCI-H2228	0.518
NCI-H1355	0.619
NCI-H3122	1.04
NCI-H1437	0.857
NCI-H1755	0.773
NCI-H2023	0.581
HCC-15	0.857
NCI-H1793	0.814
PC-14	0.83
EKVX	0.694
LC-2-ad	0.744
NCI-H1944	0.538
NCI-H1975	0.693

Same assay, conditions: first compound 0.8 µM

Cell Line	relative viability
NCI-H322M	0.864
LCLC-97TM1	0.632
NCI-H2009	0.759
A-427	0.796
NCI-H441	0.845
NCI-H661	0.783
NCI-H1734	0.757
NCI-H460	0.684
NCI-H2347	0.59
SK-LU-1	0.753
NCI-H1395	0.554
201T	0.961
NCI-H1915	0.518
HCC-827	0.826
LXF-289	0.817
NCI-H23	0.599
NCI-H647	0.563

Cell Line	relative viability
CAL-12T	0.668
NCI-H1651	0.566
EPLC-272H	0.306
NCI-H2228	0.468
NCI-H1355	0.615
NCI-H3122	0.96
NCI-H1437	0.851
NCI-H1755	0.709
NCI-H2023	0.621
HCC-15	0.779
NCI-H1793	0.795
PC-14	0.816
EKVX	0.643
LC-2-ad	0.729
NCI-H1944	0.525
NCI-H1975	0.63

Same assay, conditions: first compound 2.53 µM

Cell Line	relative viability
NCI-H322M	0.856
LCLC-97TM1	0.575
NCI-H2009	0.748
A-427	0.861
NCI-H441	0.805
NCI-H661	0.785
NCI-H1734	0.718
NCI-H460	0.708
NCI-H2347	0.408
SK-LU-1	0.719
NCI-H1395	0.73
201T	1.08
NCI-H1915	0.513
HCC-827	0.876
LXF-289	0.704
NCI-H23	0.561
NCI-H647	0.639

Cell Line	relative viability
CAL-12T	0.752
NCI-H1651	0.535
EPLC-272H	0.876
NCI-H2228	0.652
NCI-H1355	0.605
NCI-H3122	0.814
NCI-H1437	0.923
NCI-H1755	0.824
NCI-H2023	0.641
HCC-15	0.826
NCI-H1793	0.78
PC-14	0.745
EKVX	0.76
LC-2-ad	0.699
NCI-H1944	0.583
NCI-H1975	0.753

Same assay, conditions: first compound 8 µM

Cell Line	relative viability
NCI-H322M	0.905
LCLC-97TM1	0.715
NCI-H2009	0.53
A-427	0.924
NCI-H441	0.837
NCI-H661	0.796
NCI-H1734	0.859
NCI-H460	0.71
NCI-H2347	0.729
SK-LU-1	0.697
NCI-H1395	0.551
201T	0.942
NCI-H1915	0.527
HCC-827	0.785
LXF-289	0.766
NCI-H23	0.633
NCI-H647	0.437

Cell Line	relative viability
CAL-12T	0.725
NCI-H1651	0.546
EPLC-272H	0.491
NCI-H2228	0.589
NCI-H1355	0.481
NCI-H3122	0.948
NCI-H1437	0.841
NCI-H1755	0.728
NCI-H2023	0.633
HCC-15	0.827
NCI-H1793	0.838
PC-14	0.752
EKVX	0.656
LC-2-ad	0.725
NCI-H1944	0.477
NCI-H1975	0.732

Compound: O=C(NC1CCNCC1)c1n[nH]cc1NC(=O)c1c(Cl)cccc1Cl [AT-7519] + Cc1cc(Nc2cc(N3CCN(C)CC3)nc(Sc3ccc(NC(=O)C4CC4)cc3)n2)n[nH]1 [Tozasertib] (partner 0.1 µM)
Assay: as above
Details: first compound 0.01 µM
Procedure, shortened: as §1

Cell Line	relative viability
NCI-H322M	0.493
LCLC-97TM1	0.24
NCI-H2009	0.751
A-427	0.26
NCI-H441	0.788
NCI-H661	0.378
NCI-H1734	0.296
NCI-H460	0.699
NCI-H2347	0.635
SK-LU-1	0.306
NCI-H1395	0.788
201T	1.01
NCI-H1915	0.482
HCC-827	0.399
LXF-289	0.159
NCI-H23	0.332
NCI-H647	0.44

Cell Line	relative viability
CAL-12T	0.298
NCI-H1651	0.7
EPLC-272H	0.376
NCI-H2228	0.253
NCI-H1355	0.566
NCI-H3122	0.535
NCI-H1437	0.418
NCI-H1755	0.489
NCI-H2023	0.362
HCC-15	0.378
NCI-H1793	0.32
PC-14	0.591
EKVX	0.454
LC-2-ad	0.49
NCI-H1944	0.25
NCI-H1975	0.609

Same assay, conditions: first compound 0.03162 µM

Cell Line	relative viability
NCI-H322M	0.497
LCLC-97TM1	0.208
NCI-H2009	0.72
A-427	0.211
NCI-H441	0.565
NCI-H661	0.352
NCI-H1734	0.261
NCI-H460	0.473
NCI-H2347	0.512
SK-LU-1	0.364
NCI-H1395	0.782
201T	1.01
NCI-H1915	0.461
HCC-827	0.403
LXF-289	0.184
NCI-H23	0.361
NCI-H647	0.218

Cell Line	relative viability
CAL-12T	0.33
NCI-H1651	0.679
EPLC-272H	0.26
NCI-H2228	0.273
NCI-H1355	0.535
NCI-H3122	0.41
NCI-H1437	0.399
NCI-H1755	0.618
NCI-H2023	0.379
HCC-15	0.524
NCI-H1793	0.323
PC-14	0.677
EKVX	0.389
LC-2-ad	0.467
NCI-H1944	0.24
NCI-H1975	0.7

Same assay, conditions: first compound 0.3162 µM

Cell Line	relative viability
NCI-H322M	0.361
LCLC-97TM1	0.27
NCI-H2009	0.703
A-427	0.207
NCI-H441	0.573
NCI-H661	0.392
NCI-H1734	0.25
NCI-H460	0.462
NCI-H2347	0.425
SK-LU-1	0.254
NCI-H1395	0.716
201T	0.946
NCI-H1915	0.456
HCC-827	0.447
LXF-289	0.195
NCI-H23	0.337
NCI-H647	0.22

Cell Line	relative viability
CAL-12T	0.213
NCI-H1651	0.646
EPLC-272H	0.39
NCI-H2228	0.227
NCI-H1355	0.537
NCI-H3122	0.175
NCI-H1437	0.402
NCI-H1755	0.578
NCI-H2023	0.295
HCC-15	0.434
NCI-H1793	0.33
PC-14	0.526
EKVX	0.403
LC-2-ad	0.519
NCI-H1944	0.249
NCI-H1975	0.626

Same assay, conditions: first compound 1 µM

Cell Line	relative viability
NCI-H322M	0.196
LCLC-97TM1	0.124
NCI-H2009	0.515
A-427	0.14
NCI-H441	0.343
NCI-H661	0.314
NCI-H1734	0.102
NCI-H460	0.193
NCI-H2347	0.442
SK-LU-1	0.264
NCI-H1395	0.668
201T	0.977
NCI-H1915	0.347
HCC-827	0.645
LXF-289	0.178
NCI-H23	0.395
NCI-H647	0.227

Cell Line	relative viability
CAL-12T	0.122
NCI-H1651	0.556
EPLC-272H	0.243
NCI-H2228	0.179
NCI-H1355	0.508
NCI-H3122	0.136
NCI-H1437	0.34
NCI-H1755	0.547
NCI-H2023	0.135
HCC-15	0.199
NCI-H1793	0.312
PC-14	0.392
EKVX	0.531
LC-2-ad	0.266
NCI-H1944	0.213
NCI-H1975	0.133
